Measured values taken from patent US20150231147A1, “METHODS FOR ACUTE AND LONG-TERM TREATMENT OF DRUG ADDICTION” (DemeRx, Inc., priority 2014, published 2015).

Assay: Plasma noribogaine glucuronide pharmacokinetics after noribogaine dosing, healthy volunteers
Type: in vivo, human
Conditions: for AUC0-216 / AUC0-∞ / Cmax / Tmax / t1/2: healthy male volunteers, mean (n = 6)
[1] = plasma glucuronide after single oral 30 mg noribogaine
[2] = plasma glucuronide after single oral 60 mg noribogaine

CC[C@H]1C[C@@H]2C[C@H]3c4[nH]c5ccc(OC6OC(C(=O)O)C(O)C(O)C6O)cc5c4CCN(C2)[C@@H]13 (some centres unmarked) [Noribogaine glucuronide]
Mean half-life of plasma noribogaine glucuronide (30 mg and 60 mg noribogaine dose groups): 21 to 23 h
proportion of noribogaine glucuronide Cmax and AUC relative to noribogaine (both dose groups (30 mg and 60 mg)): 3-4%
AUC0-216 [1]: 25.7 ng·h/mL
AUC0-∞ [1]: 25.8 ng·h/mL
Cmax [1]: 1.8 ng/mL
Tmax [1]: 3.0 h
t1/2 [1]: 20.6 h
AUC0-216 [2]: 65.0 ng·h/mL
AUC0-∞ [2]: 67.1 ng·h/mL
Cmax [2]: 4.1 ng/mL
Tmax [2]: 3.8 h
t1/2 [2]: 23.1 h
time of peak concentrations after noribogaine dosing (plasma glucuronide, 30 mg and 60 mg noribogaine dose groups): 3 to 4 h
time by which noribogaine glucuronide was detected in all subjects (plasma, 30 mg and 60 mg noribogaine dose groups): ≤ 0.75 h
